Laboratory results published in ChEMBL document CHEMBL1154822, “Synthesis and antiproliferative activity of 7-azaindirubin-3'-oxime, a 7-aza isostere of the natural indirubin pharmacophore” (J Nat Prod, 2009).

Key:
Format in all cases: functional
[1] = tested on: ACHN; test: Cytotoxicity against human ACHN cells assessed as cell growth at 1 mM after 1 to 11 days by MTT assay; settings: read-out: Activity
[2] = tested on: OVCAR-5; test: Cytotoxicity against human OVCAR5 cells assessed as cell growth at 1 mM after 1 to 11 days by MTT assay; settings: read-out: Activity
[3] = tested on: ACHN; test: Cytotoxicity against human ACHN cells assessed as cell growth at 1 uM after 1 to 11 days by MTT assay; settings: read-out: Activity
[4] = tested on: SW-620; test: Cytotoxicity against human SW620 cells assessed as cell growth at 100 uM after 1 to 11 days by MTT assay; settings: read-out: Activity
[5] = tested on: MOLT-4; test: Cytotoxicity against human MOLT4 cells assessed as cell growth at 0.1 uM after 1 to 11 days by MTT assay; settings: read-out: Activity
[6] = tested on: MDA-MB-468; test: Cytotoxicity against human MDA-MB-468 cells assessed as cell growth at 0.1 uM after 1 to 11 days by MTT assay; settings: read-out: Activity
[7] = tested on: SK-MEL-28; test: Cytotoxicity against human SK-MEL-28 cells assessed as cell growth at 100 uM after 1 to 11 days by MTT assay; settings: read-out: Activity
[8] = tested on: SK-OV-3; test: Cytotoxicity against human SKOV3 cells assessed as cell growth at 10 uM after 1 to 11 days by MTT assay; settings: read-out: Activity
[9] = tested on: SR; test: Cytotoxicity against human SR cells assessed as cell growth at 0.1 uM after 1 to 11 days by MTT assay; settings: read-out: Activity
[10] = tested on: HL-60(TB); test: Cytotoxicity against human HL-60(TB) cells after 1 to 11 days by MTT assay
[11] = tested on: U-251; test: Cytotoxicity against human U251 cells assessed as cell growth at 100 uM after 1 to 11 days by MTT assay; settings: read-out: Activity
[12] = tested on: SN12C; test: Cytotoxicity against human SN12C cells assessed as cell growth at 1 uM after 1 to 11 days by MTT assay; settings: read-out: Activity
[13] = tested on: HT-29; test: Cytotoxicity against human HT-29 cells after 1 to 11 days by MTT assay
[14] = tested on: NCI-H226; test: Cytotoxicity against human NCI-H226 cells assessed as cell growth at 10 uM after 1 to 11 days by MTT assay; settings: read-out: Activity
[15] = tested on: CCRF-CEM; test: Cytotoxicity against human CCRF-CEM cells assessed as cell growth at 0.1 uM after 1 to 11 days by MTT assay; settings: read-out: Activity
[16] = read-out: LC50 (the source's name)

O=C1Nc2ncccc2/C1=C1/Nc2ccccc2/C1=N\O
growth at 1000 µM [1]: 17% | growth at 1000 µM [2]: 49% | growth at 1 µM [3]: 95% | growth at 100 µM [4]: 43% | growth at 0.1 µM [5]: 92% | growth at 0.1 µM [6]: 77% | growth at 100 µM [7]: 54% | growth at 10 µM [8]: 69% | growth at 0.1 µM [9]: 109% | GI50 [10]: 5.23 µM | TGI [10]: > 100 µM | CC50 [10, 16]: > 100 µM | growth at 100 µM [11]: 55% | growth at 1 µM [12]: 89% | GI50 [13]: 88.8 µM | TGI [13]: > 100 µM | CC50 [13, 16]: > 100 µM | growth at 10 µM [14]: 53% | growth at 0.1 µM [15]: 94%
